Some results are limits rather than exact numbers.

The test system of assay [1] is SW620 Yap KO cells. Kind of assay: Viability assay in SW620 Yap KO (Yap independent) cells, CyQuant. In kind it is cell-based. The following applies: Homo sapiens, SW-620, 96 h. The gist of the method:
(§1)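 Seeded cells were dosed 24 h later in duplicate (10-point, 1:3 dilutions, top 30 μM final, 0.3% DMSO) and incubated 96 h at 37 °C. Viability was read with CyQUANT DNA dye after 1 h, fluorescence bottom read. NCI-H226 in RPMI 1640 medium; SW620 YAP/TAZ CRISPR knockout in DMEM/F-12 medium.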

The subject of assay [2] is NCI-H226 cells. Nature of the assay: Viability assay in NCI-H226 (Yap-dependent) cells, CyQuant. The note with it: class symbols. In kind it is cell-based, human. In outline: as §1
Assay [3] has as its system YAP-TEAD interaction. Kind of assay: SK-HEP-1 reporter assay (8xTEAD responsive elements driving NanoLuc luciferase). In kind it is cell-based. The gist of the method:
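Reporter read-out: NanoLuc luminescence from 8×TEAD elements stably integrated in SK-HEP-1 cells, after 24 h compound exposure at 37° C. Ten concentrations tested in duplicate, top 30 μM final, 0.3% DMSO; IC50 from curve.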
(In a reporter assay the amount or activity of a reporter protein is the signal.)

The mark [4] stands for this setting: Homo sapiens, SK-HEP1, SK-HEP-1 reporter assay, n.d. = value not detectable below threshold given in parentheses.
Setting [5] is: n.d. = value not detectable below threshold given in parentheses, ND = not determinable within the entire range.
Where [6] appears, read: Homo sapiens, SK-HEP1, SK-HEP-1 reporter assay, class symbols.
Setting [7] is: n.d. = value not detectable below threshold given in parentheses.

In general, IC50 refers to the point on the concentration scale where inhibition reaches its midpoint. With `Cn1cc2c3cc(C(=O)N=[S@](=O)(CCO)Cc4ccncc4)ccc3n(-c3ccc(C(F)(F)F)cc3)c2n1` (single isomer, unassigned) [Example C253], the IC50 was 1 to 10 µM in assay [1] (class symbols); 0.1 to 1 µM in assay [2] (Homo sapiens, NCI-H226, 96 h); greater than 6.5 µM in assay [3] (setting [4]).

With `C[C@H](NC(=O)c1ccc2c(n1)c1cn(C)nc1n2-c1ccc(C(F)(F)F)cc1)c1ccccn1` [Example C119, 4-methyl-N-[(1S)-1-(pyridin-2-yl)ethyl]-7-[4-(trifluoromethyl)phenyl]-4,5,7,12-tetraazatricyclo[6.4.0.0^2,6]dodeca-1(8),2,5,9,11-pentaene-11-carboxamide], the IC50 in assay [1] (setting [5]) is greater than 30 µM; in assay [2] (Homo sapiens, NCI-H226, 96 h), 0.001 to 0.1 µM; in assay [3] (setting [6]) it was 0.01 to 0.1 µM.

Consider `Cn1nc2c3cc(C(=O)NCc4ccccc4)ccc3n(-c3ccc(C(F)(F)F)cc3)c2n1` [Example C134, N-benzyl-2-methyl-4-[4-(trifluoromethyl)phenyl]-2H,4H-[1,2,3]triazolo[4,5-b]indole-7-carboxamide], for which the IC50 in assay [1] (setting [5]) was greater than 30 µM; in assay [2] (Homo sapiens, NCI-H226, 96 h), 0.001 to 0.1 µM; in assay [3] (setting [6]), 0.01 to 0.1 µM.

On to `Cc1snc2c1c1cc(C(=O)N[C@H](CO)C(C)C)ccc1n2-c1ccc(C(F)(F)F)cc1` [Example C88, N-[(2S)-1-hydroxy-3-methylbutan-2-yl]-3-methyl-8-[4-(trifluoromethyl)phenyl]-8H-[1,2]thiazolo[3,4-b]indole-5-carboxamide], for which the IC50 was greater than 3.2 µM in assay [1] (setting [5]); 0.1 to 1 µM in assay [2] (Homo sapiens, NCI-H226, 96 h); 0.01 to 0.1 µM in assay [3] (setting [6]).

In the case of `Cn1cc2c3cc(C(=O)N[C@@H](CCO)c4ccccn4)ccc3n(-c3ccc(C(F)(F)F)cc3)c2n1` (single isomer, unassigned) [Example C240], the IC50 is greater than 3 µM in assay [1] (setting [7]); 0.001 to 0.1 µM in assay [2] (Homo sapiens, NCI-H226, 96 h); 0.01 to 0.1 µM in assay [3] (setting [6]).

With `Cn1cc2c3cc(CO)ccc3n(-c3ccc(C(F)(F)F)cc3)c2n1` [Example C182, {2-methyl-8-[4-(trifluoromethyl)phenyl]-2H,8H-pyrazolo[3,4-b]indol-5-yl}methanol], the IC50 is greater than 30 µM in assay [1] (setting [7]); 0.1 to 1 µM in assay [2] (Homo sapiens, NCI-H226, 96 h); 0.01 to 0.1 µM in assay [3] (setting [6]).

`Cc1snc2c1c1cc(C(=O)NCc3ccccn3)ccc1n2-c1ccc(C(F)(F)F)cc1` [Example C42, 3-methyl-N-[(pyridin-2-yl)methyl]-8-[4-(trifluoromethyl)phenyl]-8H-[1,2]thiazolo[3,4-b]indole-5-carboxamide]: the IC50 is greater than 30 µM in assay [1] (setting [5]); 0.001 to 0.1 µM in assay [2] (Homo sapiens, NCI-H226, 96 h); 0.01 to 0.1 µM in assay [3] (setting [6]).

With `Cn1nc2c3cc(C(=O)N=S(C)(=O)CCO)ccc3n(-c3ccc(C(F)(F)F)cc3)c2n1` (stereo not drawn) [Example C31, N-[(2-hydroxyethyl)(methyl)oxo-A6-sulfanylidene]-2-methyl-4-[4-(trifluoromethyl)phenyl]-2H,4H-[1,2,3]triazolo[4,5-b]indole-7-carboxamide], the half-maximal inhibitory concentration (IC50) in assay [1] (setting [5]) is greater than 30 µM; in assay [2] (Homo sapiens, NCI-H226, 96 h) it was 0.001 to 0.1 µM; in assay [3] (setting [6]), 0.01 to 0.1 µM.

Consider `COCCC(CO)NC(=O)c1ccc2c(c1)c1cn(C)nc1n2-c1ccc(C(F)(F)F)cc1` (single isomer, unassigned) [Example C245], for which the IC50 in assay [1] (setting [7]) was greater than 30 µM; in assay [2] (Homo sapiens, NCI-H226, 96 h), 0.001 to 0.1 µM; in assay [3] (SK-HEP-1 reporter assay, class symbols), 0.01 to 0.1 µM.

For `Cn1nc2c3cc(C(=O)N[C@@](C)(CO)c4ccccn4)ccc3n(-c3ccc(C(F)(F)F)cc3)c2n1` (single isomer, unassigned) [Example C189], the IC50 in assay [1] (setting [7]) is greater than 30 µM; in assay [2] (Homo sapiens, NCI-H226, 96 h), 0.001 to 0.1 µM; in assay [3] (setting [6]), 0.01 to 0.1 µM.

With `[2H]C1([2H])C(n2c3ccc(C(=O)N[C@@H](CO)c4ccccn4)cc3c3cn(C)nc32)C([2H])([2H])C([2H])([2H])C([2H])([2H])C1([2H])[2H]` [Example C196, 8-[(2,2,3,3,4,4,5,5,6,6-^2H10)cyclohexyl]-N-[(1R)-2-hydroxy-1-(pyridin-2-yl)ethyl]-2-methyl-2H,8H-pyrazolo[3,4-b]indole-5-carboxamide], the IC50 in assay [1] (setting [7]) was greater than 30 µM; in assay [2] (Homo sapiens, NCI-H226, 96 h), 0.1 to 1 µM; in assay [3] (setting [6]), 0.1 to 10 µM.

For the compound `Cn1nc2c3cc(C(=O)N[C@@H](CO)C(F)(F)F)ccc3n(-c3ccc(C(F)(F)F)cc3)c2n1` [Example C86, 2-methyl-N-[(2S)-1,1,1-trifluoro-3-hydroxypropan-2-yl]-4-[4-(trifluoromethyl)phenyl]-2H,4H-[1,2,3]triazolo [4,5-b]indole-7-carboxamide], the IC50 in assay [1] (setting [5]) was greater than 30 µM; in assay [2] (Homo sapiens, NCI-H226, 96 h), 0.001 to 0.1 µM; in assay [3] (setting [6]) it was 0.01 to 0.1 µM.

Take `Cn1cc2c3cc(C(=O)NC(CO)c4ccccn4)ccc3n(-c3ccc(C(F)(F)F)nc3)c2n1` (single isomer, unassigned) [Example C123]: the IC50 in assay [1] (setting [5]) is greater than 30 µM; in assay [2] (96 h) it was 0.1 to 1 µM; in assay [3] (setting [6]), 0.1 to 10 µM.

Regarding `Cc1snc2c1c1cc(C(=O)NCCO)ccc1n2-c1ccc(C(F)(F)F)cc1` [Example C65, N-(2-hydroxyethyl)-3-methyl-8-[4-(trifluoromethyl)phenyl]-8H-[1,2]thiazolo[3,4-b]indole-5-carboxamide], the IC50 in assay [1] (setting [5]) is greater than 3.2 µM; in assay [2] (Homo sapiens, NCI-H226, 96 h), 0.001 to 0.1 µM; in assay [3] (setting [6]) it was 0.01 to 0.1 µM.

Turning to `Cn1cc2c3cc(C(=O)N=[S@](=O)(CCCO)Cc4cccnc4)ccc3n(-c3ccc(C(F)(F)F)cc3)c2n1` (single isomer, unassigned) [Example C201], the IC50 is 1 to 10 µM in assay [1] (class symbols); 0.1 to 1 µM in assay [2] (Homo sapiens, NCI-H226, 96 h); greater than 0.3 µM in assay [3] (setting [4]).

For `Cc1c2c3cc(C(=O)NCc4ccncc4)ccc3n(-c3ccc(C(F)(F)F)cc3)c2nn1C` [Example C98, 2,3-dimethyl-N-[(pyridin-4-yl)methyl]-8-[4-(trifluoromethyl)phenyl]-2H,8H-pyrazolo[3,4-b]indole-5-carboxamide], the IC50 in assay [1] (setting [5]) was greater than 3.2 µM; in assay [2] (Homo sapiens, NCI-H226, 96 h) it was 0.001 to 0.1 µM; in assay [3] (setting [6]), 0.01 to 0.1 µM.

`Cn1nc2c3cc(C(=O)N[C@H](CCO)c4ccccn4)ccc3n(-c3ccc(C(F)(F)F)cc3)c2n1` (single isomer, unassigned) [Example C241]: the IC50 in assay [1] (setting [7]) was greater than 3 µM; in assay [2] (Homo sapiens, NCI-H226, 96 h) it was 0.1 to 1 µM; in assay [3] (setting [6]), 0.01 to 0.1 µM.

Regarding `Cn1cc2c3cc(C(=O)N=S(=O)(CCO)Cc4ccncc4)ccc3n(-c3ccc(C(F)(F)F)cc3)c2n1` (stereo not drawn) [Example C216, N-[(2-hydroxyethyl)(oxo)[(pyridin-4-yl)methyl]-λ^6-sulfanylidene]-2-methyl-8-[4-(trifluoromethyl)phenyl]-2H,8H-pyrazolo[3,4-b]indole-5-carboxamide], the IC50 in assay [1] (setting [7]) is greater than 3 µM; in assay [2] (Homo sapiens, NCI-H226, 96 h), 0.001 to 0.1 µM; in assay [3] (setting [4]), greater than 9.5 µM.

Regarding `CNC(=O)c1ccc2c(c1)c1c(C)snc1n2-c1ccc(C(F)(F)F)cc1` [Example C51, N,3-dimethyl-8-[4-(trifluoromethyl)phenyl]-8H-[1,2]thiazolo[3,4-b]indole-5-carboxamide], the IC50 was in the range of 1 to 10 µM in assay [1] (class symbols); 0.001 to 0.1 µM in assay [2] (Homo sapiens, NCI-H226, 96 h); 0.01 to 0.1 µM in assay [3] (setting [6]).

For the compound `Cn1cc2c3cc(C(=O)N=S(C)(=O)CCO)ccc3n(-c3ccc(C(F)(F)F)cc3)c2n1` (single isomer, unassigned) [Example C73], the IC50 was greater than 30 µM in assay [1] (setting [5]); 0.001 to 0.1 µM in assay [2] (Homo sapiens, NCI-H226, 96 h); 0.1 to 10 µM in assay [3] (setting [6]).

On to `Cn1cc2c3cc(C(=O)N=[S@](=O)(CCCO)Cc4ccccn4)ccc3n(-c3ccc(C(F)(F)F)cc3)c2n1` (single isomer, unassigned) [Example C213], for which the IC50 was greater than 3 µM in assay [1] (setting [7]); 0.001 to 0.1 µM in assay [2] (96 h); greater than 0.3 µM in assay [3] (SK-HEP-1 reporter assay, n.d. = value not detectable below threshold given in parentheses).

In the case of `Cc1snc2c1c1cc(C(=O)N[C@](C)(CO)c3ccccc3)ccc1n2-c1ccc(C(F)(F)F)cc1` [Example C80, N-[(2S)-1-hydroxy-2-phenylpropan-2-yl]-3-methyl-8-[4-(trifluoromethyl)phenyl]-8H-[1,2]thiazolo[3,4-b]indole-5-carboxamide], the IC50 was greater than 30 µM in assay [1] (setting [5]); 0.001 to 0.1 µM in assay [2] (Homo sapiens, NCI-H226, 96 h); 0.01 to 0.1 µM in assay [3] (setting [6]).

Take `C[C@@H](NC(=O)c1ccc2c(c1)c1nn(C)nc1n2-c1ccc(C(F)(F)F)cc1)c1cccc(N)n1` [Example C181, N-[(1R)-1-(6-aminopyridin-2-yl)ethyl]-2-methyl-4-[4-(trifluoromethyl)phenyl]-2H,4H-[1,2,3]triazolo[4,5-b]indole-7-carboxamide]: the IC50 in assay [1] (setting [7]) is greater than 3 µM; in assay [2] (Homo sapiens, NCI-H226, 96 h) it was 0.001 to 0.1 µM; in assay [3] (setting [6]), 0.01 to 0.1 µM.

Turning to `Cn1nc2c3cc(C(=O)N=[S@](=O)(CCO)Cc4ccccn4)ccc3n(-c3ccc(C(F)(F)F)cc3)c2n1` (single isomer, unassigned) [Example C161], the IC50 in assay [1] (setting [5]) is greater than 3 µM; in assay [2] (Homo sapiens, NCI-H226, 96 h) it was 0.001 to 0.1 µM; in assay [3] (setting [6]), 0.01 to 0.1 µM.

On to `Cn1cc2c3cc(C(=O)N=[S@@](=O)(CCCO)Cc4ccccn4)ccc3n(-c3ccc(C(F)(F)F)cc3)c2n1` (single isomer, unassigned) [Example C210], for which the IC50 in assay [1] (setting [7]) was greater than 3 µM; in assay [2] (Homo sapiens, NCI-H226, 96 h), 0.1 to 1 µM; in assay [3] (setting [4]) it was greater than 0.095 µM.

For the compound `Cc1snc2c1c1cc(C(=O)N[C@H](C)CO)ccc1n2-c1ccc(C(F)(F)F)cc1` [Example C66, N-[(2R)-1-hydroxypropan-2-yl]-3-methyl-8-[4-(trifluoromethyl)phenyl]-8H-[1,2]thiazolo[3,4-b]indole-5-carboxamide], the IC50 was greater than 3.2 µM in assay [1] (setting [5]); 0.001 to 0.1 µM in assay [2] (Homo sapiens, NCI-H226, 96 h); 0.01 to 0.1 µM in assay [3] (setting [6]).

The values are drawn from patent publication US20240270748A1 (Merck Patent GmbH, priority 2021, published 2024).
